Test results published in ChEMBL document CHEMBL4393707, “Synthesis and evaluation of new quinazolin-4(3H)-one derivatives as potent antibacterial agents against multidrug resistant Staphylococcus aureus and Mycobacterium tuberculosis” (Eur J Med Chem, 2019).
Converted amounts (≈) assume the structure as drawn.

What was measured:
Staphylococcus aureus [1] = experiment: Synergistic antibacterial activity against Staphylococcus aureus ATCC 29213 assessed as FIC incubated for 24 hrs in presence of meropenem by checkerboard titration assay; format: functional
Staphylococcus aureus [2] = experiment: Potentiation of gentamycin-induced antibacterial activity against Staphylococcus aureus ATCC 29213 assessed as gentamycin MIC incubated for 24 hrs by checkerboard titration assay (reference value: 0.25 ug/ml); format: functional; details: ATCC 29213, 24 h
Klebsiella pneumoniae = experiment: Antibacterial activity against Klebsiella pneumoniae ATCC BAA-1705 incubated for 16 to 18 hrs by broth microdilution assay; format: functional
Staphylococcus aureus [3] = experiment: Synergistic antibacterial activity against Staphylococcus aureus ATCC 29213 incubated for 24 hrs in presence of daptomycin by checkerboard titration assay; format: functional; details: ATCC 29213, 24 h
Staphylococcus aureus [4] = experiment: Antibacterial activity against methicillin-resistant Staphylococcus aureus NR10193 incubated for 16 to 18 hrs by broth microdilution assay; format: functional
Staphylococcus aureus [5] = experiment: Potentiation of linezolid-induced antibacterial activity against Staphylococcus aureus ATCC 29213 assessed as FIC incubated for 24 hrs by checkerboard titration assay; format: functional
Staphylococcus aureus [6] = experiment: Potentiation of rifampicin-induced antibacterial activity against Staphylococcus aureus ATCC 29213 assessed as FIC incubated for 24 hrs by checkerboard titration assay; format: functional
Staphylococcus aureus [7] = experiment: Synergistic antibacterial activity against Staphylococcus aureus ATCC 29213 incubated for 24 hrs in presence of gentamycin by checkerboard titration assay; format: functional; details: ATCC 29213, 24 h
Staphylococcus aureus [8] = experiment: Antibacterial activity against methicillin-resistant Staphylococcus aureus NR10186 incubated for 16 to 18 hrs by broth microdilution assay; format: functional
Staphylococcus aureus [9] = experiment: Synergistic antibacterial activity against Staphylococcus aureus ATCC 29213 assessed as sum of FIC for test compound in presence of ceftazidime and FIC for ceftazidime in presence of test compound incubated for 24 hrs by checkerboard titration assay; format: functional
Staphylococcus aureus [10] = experiment: Antibacterial activity against methicillin-resistant Staphylococcus aureus NR10191 incubated for 16 to 18 hrs by broth microdilution assay; format: functional
Staphylococcus aureus [11] = experiment: Potentiation of rifampicin-induced antibacterial activity against Staphylococcus aureus ATCC 29213 assessed as rifampicin MIC incubated for 24 hrs by checkerboard titration assay (reference value: […] ug/ml); format: functional; details: ATCC 29213, 24 h
Staphylococcus aureus [12] = experiment: Synergistic antibacterial activity against Staphylococcus aureus ATCC 29213 assessed as FIC incubated for 24 hrs in presence of levofloxacin by checkerboard titration assay; format: functional
[13] = Selectivity index, ratio of CC50 for African green monkey Vero cells to MIC for Staphylococcus aureus ATCC 29213; format: toxicity; details: read-out: Selectivity Index
Staphylococcus aureus [14] = experiment: Antibacterial activity against Staphylococcus aureus ATCC 29213 incubated for 16 to 18 hrs by broth microdilution assay; format: functional
Staphylococcus aureus [15] = experiment: Synergistic antibacterial activity against Staphylococcus aureus ATCC 29213 assessed as FIC incubated for 24 hrs in presence of minocycline by checkerboard titration assay; format: functional
Staphylococcus aureus [16] = experiment: Antibacterial activity against methicillin-resistant Staphylococcus aureus NR10198 incubated for 16 to 18 hrs by broth microdilution assay; format: functional
Staphylococcus aureus [17] = experiment: Synergistic antibacterial activity against Staphylococcus aureus ATCC 29213 incubated for 24 hrs in presence of levofloxacin by checkerboard titration assay; format: functional; details: ATCC 29213, 24 h
Staphylococcus aureus [18] = experiment: Antibacterial activity against methicillin-resistant Staphylococcus aureus NR119 incubated for 16 to 18 hrs by broth microdilution assay; format: functional
Staphylococcus aureus [19] = experiment: Potentiation of vancomycin-induced antibacterial activity against Staphylococcus aureus ATCC 29213 assessed as vancomycin MIC incubated for 24 hrs by checkerboard titration assay (reference value: 1 ug/ml); format: functional; details: ATCC 29213, 24 h
Staphylococcus aureus [20] = experiment: Potentiation of levofloxacin-induced antibacterial activity against Staphylococcus aureus ATCC 29213 assessed as levofloxacin MIC incubated for 24 hrs by checkerboard titration assay (reference value: 0.25 ug/ml); format: functional; details: ATCC 29213, 24 h
Staphylococcus aureus [21] = experiment: Potentiation of meropenem-induced antibacterial activity against Staphylococcus aureus ATCC 29213 assessed as FIC incubated for 24 hrs by checkerboard titration assay; format: functional
Staphylococcus aureus [22] = experiment: Antibacterial activity against methicillin-resistant Staphylococcus aureus NR10194 incubated for 16 to 18 hrs by broth microdilution assay; format: functional
Staphylococcus aureus [23] = experiment: Potentiation of linezolid-induced antibacterial activity against Staphylococcus aureus ATCC 29213 assessed as linezolid MIC incubated for 24 hrs by checkerboard titration assay (reference value: 2 ug/ml); format: functional; details: ATCC 29213, 24 h
Staphylococcus aureus [24] = experiment: Potentiation of levofloxacin-induced antibacterial activity against Staphylococcus aureus ATCC 29213 assessed as FIC incubated for 24 hrs by checkerboard titration assay; format: functional
Staphylococcus aureus [25] = experiment: Potentiation of ceftazidime-induced antibacterial activity against Staphylococcus aureus ATCC 29213 assessed as FIC incubated for 24 hrs by checkerboard titration assay; format: functional
Acinetobacter baumannii = experiment: Antibacterial activity against Acinetobacter baumannii BAA1605 incubated for 16 to 18 hrs by broth microdilution assay; format: functional
Staphylococcus aureus [26] = experiment: Synergistic antibacterial activity against Staphylococcus aureus ATCC 29213 assessed as FIC incubated for 24 hrs in presence of linezolid by checkerboard titration assay; format: functional
Staphylococcus aureus [27] = experiment: Synergistic antibacterial activity against Staphylococcus aureus ATCC 29213 assessed as sum of FIC for test compound in presence of rifampicin and FIC for rifampicin in presence of test compound incubated for 24 hrs by checkerboard titration assay; format: functional
Staphylococcus aureus [28] = experiment: Potentiation of minocycline-induced antibacterial activity against Staphylococcus aureus ATCC 29213 assessed as minocycline MIC incubated for 24 hrs by checkerboard titration assay (reference value: 0.125 ug/ml); format: functional; details: ATCC 29213, 24 h
Staphylococcus aureus [29] = experiment: Synergistic antibacterial activity against Staphylococcus aureus ATCC 29213 assessed as sum of FIC for test compound in presence of daptomycin and FIC for daptomycin in presence of test compound incubated for 24 hrs by checkerboard titration assay; format: functional
Staphylococcus aureus [30] = experiment: Synergistic antibacterial activity against Staphylococcus aureus ATCC 29213 assessed as sum of FIC for test compound in presence of minocycline and FIC for minocycline in presence of test compound incubated for 24 hrs by checkerboard titration assay; format: functional
Staphylococcus aureus [31] = experiment: Antibacterial activity against methicillin-resistant Staphylococcus aureus NR10192 incubated for 16 to 18 hrs by broth microdilution assay; format: functional
Staphylococcus aureus [32] = experiment: Potentiation of daptomycin-induced antibacterial activity against Staphylococcus aureus ATCC 29213 assessed as daptomycin MIC incubated for 24 hrs by checkerboard titration assay (reference value: 0.5 ug/ml); format: functional; details: ATCC 29213, 24 h
Staphylococcus aureus [33] = experiment: Synergistic antibacterial activity against Staphylococcus aureus ATCC 29213 assessed as sum of FIC for test compound in presence of levofloxacin and FIC for levofloxacin in presence of test compound incubated for 24 hrs by checkerboard titration assay; format: functional
Staphylococcus aureus [34] = experiment: Antibacterial activity against methicillin-resistant Staphylococcus aureus NR10129 incubated for 16 to 18 hrs by broth microdilution assay; format: functional
Staphylococcus aureus [35] = experiment: Potentiation of minocycline-induced antibacterial activity against Staphylococcus aureus ATCC 29213 assessed as FIC incubated for 24 hrs by checkerboard titration assay; format: functional
Staphylococcus aureus [36] = experiment: Potentiation of vancomycin-induced antibacterial activity against Staphylococcus aureus ATCC 29213 assessed as FIC incubated for 24 hrs by checkerboard titration assay; format: functional
[37] = tested on: Mycobacterium tuberculosis; experiment: Antitubercular activity against Mycobacterium tuberculosis H37Rv after 7 days by resazurin dye based assay; format: functional; details: 168 h
Staphylococcus aureus [38] = experiment: Synergistic antibacterial activity against Staphylococcus aureus ATCC 29213 incubated for 24 hrs in presence of minocycline by checkerboard titration assay; format: functional; details: ATCC 29213, 24 h

Row | Compound | FIC (Staphylococcus aureus [1]) | MIC (Staphylococcus aureus [2]) | MIC (Klebsiella pneumoniae) | MIC (Staphylococcus aureus [3]) | MIC (Staphylococcus aureus [4]) | FIC (Staphylococcus aureus [5]) | FIC (Staphylococcus aureus [6]) | MIC (Staphylococcus aureus [7]) | MIC (Staphylococcus aureus [8]) | FIC (Staphylococcus aureus [9]) | MIC (Staphylococcus aureus [10]) | MIC (Staphylococcus aureus [11]) | FIC (Staphylococcus aureus [12]) | selectivity ratio [13] | MIC (Staphylococcus aureus [14]) | FIC (Staphylococcus aureus [15]) | MIC (Staphylococcus aureus [16]) | MIC (Staphylococcus aureus [17]) | MIC (Staphylococcus aureus [18]) | MIC (Staphylococcus aureus [19]) | other results
1 | N#Cc1ccc(/C=C/c2nc3cccc(F)c3c(=O)n2-c2cccc(O)c2)cc1 | 0.0625 | 1.9 ng/mL | > 64000 ng/mL | 7.8 ng/mL | < 125 ng/mL | 0.0037 | 0.002 | 7.8 ng/mL | < 125 ng/mL | 0.0664 | < 125 ng/mL | 0.03 ng/mL | 0.0625 | > 83.4 | 62.5 ng/mL (≈ 0.163 µM) | 0.0625 | < 125 ng/mL | 7.8 ng/mL | < 125 ng/mL | 3.9 ng/mL | MIC (Staphylococcus aureus [20]): 0.9 ng/mL; FIC (Staphylococcus aureus [21]): 0.0018; MIC (Staphylococcus aureus [22]): 125 to 250 ng/mL (≈ 0.326 to 0.652 µM); MIC (Staphylococcus aureus [23]): 7.5 ng/mL; FIC (Staphylococcus aureus [24]): 0.0036; FIC (Staphylococcus aureus [25]): 0.0039; MIC (Acinetobacter baumannii): > 64000 ng/mL; FIC (Staphylococcus aureus [26]): 0.0625; FIC (Staphylococcus aureus [27]): 0.0645; MIC (Staphylococcus aureus [28]): 0.9 ng/mL; FIC (Staphylococcus aureus [29]): 0.0644; FIC (Staphylococcus aureus [30]): 0.0697; MIC (Staphylococcus aureus [31]): < 125 ng/mL; MIC (Staphylococcus aureus [32]): 1.9 ng/mL; FIC (Staphylococcus aureus [33]): 0.0661; MIC (Staphylococcus aureus [34]): < 125 ng/mL; FIC (Staphylococcus aureus [35]): 0.0072; FIC (Staphylococcus aureus [36]): 0.0039; MIC [37]: 8000 ng/mL (≈ 20.9 µM); MIC (Staphylococcus aureus [38]): 7.8 ng/mL
2 | N#Cc1ccc(/C=C/c2nc3ccccc3c(=O)n2-c2ccc(C(=O)O)c(O)c2)cc1 | 0.032 | 1.9 ng/mL | > 64000 ng/mL | 1.9 ng/mL | < 125 ng/mL | 0.003 | 0.002 | 1.9 ng/mL | < 125 ng/mL | 0.034 | < 125 ng/mL | 0.03 ng/mL | 0.032 | > 167 | 30 ng/mL (≈ 0.0733 µM) | 0.032 | < 125 ng/mL | 1.9 ng/mL | 125 to 250 ng/mL (≈ 0.305 to 0.611 µM) | 3.9 ng/mL | MIC (Staphylococcus aureus [20]): 0.9 ng/mL; FIC (Staphylococcus aureus [21]): 0.003; MIC (Staphylococcus aureus [22]): < 125 ng/mL; MIC (Staphylococcus aureus [23]): 7.5 ng/mL; FIC (Staphylococcus aureus [24]): 0.003; FIC (Staphylococcus aureus [25]): 0.0019; MIC (Acinetobacter baumannii): > 64000 ng/mL; FIC (Staphylococcus aureus [26]): 0.032; FIC (Staphylococcus aureus [27]): 0.034; MIC (Staphylococcus aureus [28]): 0.9 ng/mL; FIC (Staphylococcus aureus [29]): 0.036; FIC (Staphylococcus aureus [30]): 0.039; MIC (Staphylococcus aureus [31]): < 125 ng/mL; MIC (Staphylococcus aureus [32]): 1.9 ng/mL; FIC (Staphylococcus aureus [33]): 0.036; MIC (Staphylococcus aureus [34]): < 125 ng/mL; FIC (Staphylococcus aureus [35]): 0.007; FIC (Staphylococcus aureus [36]): 0.003; MIC [37]: 64000 ng/mL (≈ 156 µM); MIC (Staphylococcus aureus [38]): 1.9 ng/mL
